Reference: ChEMBL document CHEMBL1201862, “PubChem BioAssay data set” (2004)
Where “and” joins values, the source holds several entries; their conditions need not be identical. Identical values can stand only once.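 In this assay, cells in 96-well plates receive the compound at five concentrations for 48 hours. Endpoints are linearly interpolated between the surrounding concentrations. GI50 marks 50% less growth.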 Calls of active or inactive are those of the source. No stated cut-off is given here; in the data, active = GI50 up to about 1.1 µM and inactive = higher.

Columns and labels:
Test in all cases: inhibition of tumour cell growth, NCI panel, 48 h
UACC-257 = tested on: UACC-257
SNB-75 = tested on: SNB-75
TK-10 = tested on: TK-10
IGROV-1 = tested on: IGROV-1
HOP-92 = tested on: HOP-92
RXF 393 = tested on: RXF 393
HCT-15 = tested on: HCT-15
COLO 205 = tested on: COLO 205
NCI-H226 = tested on: NCI-H226
KM12 = tested on: KM12
HCT-116 = tested on: HCT-116
SNB-19 = tested on: SNB-19
UO-31 = tested on: UO-31
M14 = tested on: M14
OVCAR-3 = tested on: OVCAR-3
MDA-MB-231 = tested on: MDA-MB-231
OVCAR-4 = tested on: OVCAR-4
A498 = tested on: A498
U-251 = tested on: U-251
SW-620 = tested on: SW-620
HT-29 = tested on: HT-29
CAKI-1 = tested on: CAKI-1
PC-3 = tested on: PC-3
NCI-H23 = tested on: NCI-H23
A549 = tested on: A549
ACHN = tested on: ACHN
EKVX = tested on: EKVX
MDA-MB-435 = tested on: MDA-MB-435
OVCAR-5 = tested on: OVCAR-5
SF-268 = tested on: SF-268
NCI/ADR-RES = tested on: NCI/ADR-RES
SF-539 = tested on: SF-539
SN12C = tested on: SN12C
SK-MEL-5 = tested on: SK-MEL-5
SK-MEL-28 = tested on: SK-MEL-28
OVCAR-8 = tested on: OVCAR-8
DU-145 = tested on: DU-145
SF-295 = tested on: SF-295
MDA-N = tested on: MDA-N
HOP-62 = tested on: HOP-62
HCC 2998 = tested on: HCC 2998
CCRF-CEM = tested on: CCRF-CEM
T47D = tested on: T47D
MOLT-4 = tested on: MOLT-4
LOX IMVI = tested on: LOX IMVI
MCF7 = tested on: MCF7
786-0 = tested on: 786-0
SK-MEL-2 = tested on: SK-MEL-2
RPMI-8226 = tested on: RPMI-8226
Malme-3M = tested on: Malme-3M
NCI-H522 = tested on: NCI-H522
HL-60 = tested on: HL-60
UACC-62 = tested on: UACC-62
SK-OV-3 = tested on: SK-OV-3
K562 = tested on: K562
NCI-H460 = tested on: NCI-H460
SR = tested on: SR
Hs-578T = tested on: Hs-578T

## COC(=O)/C=C/c1cc(OC)c2c(c1)C(C(=O)OC)C(c1ccc(OC)c(OC)c1)O2 (stereo not given)
UACC-257
  GI50: > 100 µM (inactive)
SNB-75
  GI50: 1.95 µM (inactive)
TK-10
  GI50: > 100 µM (inactive)
IGROV-1
  GI50: 2.27 µM (inactive)
HOP-92
  GI50: 55.8 µM (inactive) and > 88.3 µM (inactive)
RXF 393
  GI50: 4.94 µM (inactive)

## CC(=O)N1C(=O)CC2(N=C(C)CC2=O)c2ccccc21 (stereo not given)
HCT-15
  GI50: > 10 µM
COLO 205
  GI50: > 10 µM (inactive)
NCI-H226
  GI50: > 10 µM (inactive)
KM12
  GI50: > 10 µM (inactive)
SNB-75
  GI50: > 10 µM (inactive)
HCT-116
  GI50: > 10 µM (inactive)
SNB-19
  GI50: > 10 µM (inactive)
UO-31
  GI50: 1.49 µM (inactive)
M14
  GI50: > 10 µM (inactive)
OVCAR-3
  GI50: > 10 µM (inactive)
MDA-MB-231
  GI50: > 10 µM (inactive)
OVCAR-4
  GI50: > 10 µM (inactive)
A498
  GI50: > 10 µM (inactive)
U-251
  GI50: > 10 µM (inactive)
SW-620
  GI50: > 10 µM (inactive)
HT-29
  GI50: > 10 µM (inactive)
CAKI-1
  GI50: > 10 µM (inactive)
PC-3
  GI50: > 10 µM (inactive)
NCI-H23
  GI50: > 10 µM (inactive)
A549
  GI50: > 10 µM (inactive)
ACHN
  GI50: > 10 µM (inactive)
EKVX
  GI50: > 10 µM (inactive)
TK-10
  GI50: > 10 µM (inactive)
IGROV-1
  GI50: > 10 µM (inactive)
MDA-MB-435
  GI50: > 10 µM (inactive)
OVCAR-5
  GI50: > 10 µM (inactive)
SF-268
  GI50: > 10 µM (inactive)
HOP-92
  GI50: > 10 µM (inactive)
NCI/ADR-RES
  GI50: > 10 µM (inactive)
SF-539
  GI50: 0.0132 µM (active)
SN12C
  GI50: > 10 µM (inactive)
SK-MEL-5
  GI50: > 10 µM (inactive)
SK-MEL-28
  GI50: > 10 µM (inactive)
RXF 393
  GI50: > 10 µM (inactive)
OVCAR-8
  GI50: > 10 µM (inactive)
DU-145
  GI50: > 10 µM (inactive)
SF-295
  GI50: > 10 µM (inactive)
MDA-N
  GI50: > 10 µM (inactive)

## CCNc1ncnc2c1nnn2CC
HCT-15
  GI50: > 100 µM
HOP-62
  GI50: > 100 µM (inactive)
COLO 205
  GI50: > 100 µM (inactive)
NCI-H226
  GI50: > 100 µM (inactive)
HCC 2998
  GI50: > 100 µM (inactive)
KM12
  GI50: > 100 µM (inactive)
CCRF-CEM
  GI50: > 100 µM (inactive)
UACC-257
  GI50: > 100 µM (inactive)
SNB-75
  GI50: 77.1 µM (inactive)
HCT-116
  GI50: > 100 µM (inactive)
SNB-19
  GI50: > 100 µM (inactive)
UO-31
  GI50: > 100 µM (inactive)
T47D
  GI50: > 100 µM (inactive)
MOLT-4
  GI50: > 100 µM (inactive)
M14
  GI50: > 100 µM (inactive)
OVCAR-3
  GI50: > 100 µM (inactive)
MDA-MB-231
  GI50: > 100 µM (inactive)
OVCAR-4
  GI50: > 100 µM (inactive)
LOX IMVI
  GI50: > 100 µM (inactive)
A498
  GI50: > 100 µM (inactive)
U-251
  GI50: > 100 µM (inactive)
SW-620
  GI50: > 100 µM (inactive)
HT-29
  GI50: > 100 µM (inactive)
MCF7
  GI50: > 100 µM (inactive)
CAKI-1
  GI50: > 100 µM (inactive)
PC-3
  GI50: > 100 µM (inactive)
NCI-H23
  GI50: > 100 µM (inactive)
786-0
  GI50: > 100 µM (inactive)
A549
  GI50: > 100 µM (inactive)
ACHN
  GI50: > 100 µM (inactive)
EKVX
  GI50: > 100 µM (inactive)
SK-MEL-2
  GI50: > 100 µM (inactive)
TK-10
  GI50: > 100 µM (inactive)
RPMI-8226
  GI50: > 100 µM (inactive)
Malme-3M
  GI50: > 100 µM (inactive)
IGROV-1
  GI50: > 100 µM (inactive)
MDA-MB-435
  GI50: > 100 µM (inactive)
NCI-H522
  GI50: > 100 µM (inactive)
HL-60
  GI50: > 100 µM (inactive)
UACC-62
  GI50: > 100 µM (inactive)
HOP-92
  GI50: 72.1 µM (inactive)
NCI/ADR-RES
  GI50: > 100 µM (inactive)
SF-539
  GI50: > 100 µM (inactive)
SN12C
  GI50: > 100 µM (inactive)
SK-MEL-5
  GI50: > 100 µM (inactive)
SK-OV-3
  GI50: > 100 µM (inactive)
K562
  GI50: > 100 µM (inactive)
SK-MEL-28
  GI50: > 100 µM (inactive)
RXF 393
  GI50: > 100 µM (inactive)
OVCAR-8
  GI50: 97.5 µM (inactive)
DU-145
  GI50: > 100 µM (inactive)
SF-295
  GI50: 79.6 µM (inactive)
MDA-N
  GI50: > 100 µM (inactive)

## COc1ccccc1N1CCN(CCCNC(=O)c2cc(Cl)c(N)c(Cl)c2)CC1
HCT-15
  GI50: 18.5 µM
HOP-62
  GI50: 29.7 µM (inactive)
COLO 205
  GI50: > 10 µM (inactive)
NCI-H226
  GI50: 28.4 µM (inactive)
HCC 2998
  GI50: 21.5 µM (inactive)
KM12
  GI50: 26.9 µM (inactive)
CCRF-CEM
  GI50: 29.7 µM (inactive)
UACC-257
  GI50: 22.8 µM (inactive)
SNB-75
  GI50: 59.3 µM (inactive)
HCT-116
  GI50: 31 µM (inactive)
SNB-19
  GI50: 41.3 µM (inactive)
UO-31
  GI50: 21.9 µM (inactive)
T47D
  GI50: 42.9 µM (inactive)
MOLT-4
  GI50: 19.8 µM (inactive)
M14
  GI50: 19.4 µM (inactive)
MDA-MB-231
  GI50: 22.9 µM (inactive)
NCI-H460
  GI50: 23.3 µM (inactive)
OVCAR-4
  GI50: 52 µM (inactive)
A498
  GI50: 42 µM (inactive)
U-251
  GI50: 27 µM (inactive)
SW-620
  GI50: 37.5 µM (inactive)
HT-29
  GI50: 24.1 µM (inactive)
MCF7
  GI50: 35.2 µM (inactive)
NCI-H23
  GI50: 49.7 µM (inactive)
786-0
  GI50: 33.3 µM (inactive)
A549
  GI50: 61.9 µM (inactive)
ACHN
  GI50: 55.2 µM (inactive)
EKVX
  GI50: > 100 µM (inactive)
SR
  GI50: 12.7 µM (inactive)
TK-10
  GI50: 54.2 µM (inactive)
RPMI-8226
  GI50: 18.7 µM (inactive)
Malme-3M
  GI50: 18.8 µM (inactive)
IGROV-1
  GI50: 71.6 µM (inactive)
MDA-MB-435
  GI50: 40.2 µM (inactive)
Hs-578T
  GI50: 67.1 µM (inactive)
HL-60
  GI50: 15.5 µM (inactive)
UACC-62
  GI50: 35 µM (inactive)
OVCAR-5
  GI50: 44.6 µM (inactive)
SF-268
  GI50: 77.4 µM (inactive)
HOP-92
  GI50: 4.36 µM (inactive)
NCI/ADR-RES
  GI50: 36.8 µM (inactive)
SF-539
  GI50: 28.6 µM (inactive)
SN12C
  GI50: 20 µM (inactive)
SK-MEL-5
  GI50: 18.2 µM (inactive)
SK-OV-3
  GI50: 69.8 µM (inactive)
SK-MEL-28
  GI50: 32.4 µM (inactive)
RXF 393
  GI50: 27 µM (inactive)
OVCAR-8
  GI50: 47.5 µM (inactive)
DU-145
  GI50: 88.1 µM (inactive)
SF-295
  GI50: 16.3 µM (inactive)

## O=C(N/N=C/c1cc(Cl)cc(Cl)c1O)c1ccccc1O
HCT-15
  GI50: 0.395 µM
HOP-62
  GI50: 1.67 µM (inactive)
NCI-H226
  GI50: 1.37 µM (inactive)
HCC 2998
  GI50: 3.18 µM (inactive)
UACC-257
  GI50: 1.63 µM (inactive)
SNB-75
  GI50: 3.05 µM (inactive)
SNB-19
  GI50: 1.91 µM (inactive)
UO-31
  GI50: 1.69 µM (inactive)
M14
  GI50: 0.521 µM (active)
OVCAR-3
  GI50: 0.282 µM (active)
NCI-H460
  GI50: 0.537 µM (active)
OVCAR-4
  GI50: 0.22 µM (active)
LOX IMVI
  GI50: 0.303 µM (active)
U-251
  GI50: 0.445 µM (active)
SW-620
  GI50: 0.735 µM (active)
HT-29
  GI50: 3.49 µM (inactive)
CAKI-1
  GI50: 0.723 µM (active)
ACHN
  GI50: 0.346 µM (active)
SR
  GI50: 0.281 µM (active)
TK-10
  GI50: 3.06 µM (inactive)
IGROV-1
  GI50: 1.69 µM (inactive)
NCI-H522
  GI50: 0.254 µM (active)
HL-60
  GI50: 0.175 µM (active)
UACC-62
  GI50: 0.254 µM (active)
OVCAR-5
  GI50: 2.53 µM (inactive)
SF-268
  GI50: 0.351 µM (active)
SK-MEL-5
  GI50: 1.28 µM (inactive)
SK-OV-3
  GI50: 0.929 µM (active)
K562
  GI50: 0.519 µM (active)
SK-MEL-28
  GI50: 1 µM (active)
RXF 393
  GI50: 1.31 µM (inactive)
OVCAR-8
  GI50: 0.344 µM (active)
SF-295
  GI50: 0.526 µM (active)
